In brackets after ≈: the same amount, converted by molar mass. Entries after “also recorded” stand apart in the source; their conditions may differ. Like-named read-outs stand apart in the source and are kept apart here.
Legend:
[1] = tested on: Bacteroides non fragilis clinical isolates; assay: MIC distribution against clinical isolates; type: cell-based; settings: 29 Bacteroides non-fragilis isolates
[2] = tested on: Prevotella spp. clinical isolates; assay: MIC distribution against clinical isolates; type: cell-based; settings: 30 Prevotella spp. isolates
Prevotella spp. = assay: Agar dilution MIC, 30 clinical isolates; type: cell-based
Veillonella spp. = assay: Agar dilution MIC, 30 clinical isolates; type: cell-based
E. coli ATCC 25922 = assay: Time-kill assay; type: cell-based, Escherichia coli; settings: 2×, 4×, 8× MIC; 2, 6, 24 hr
S. pneumoniae ATCC 49619 = assay: Time-kill assay; type: cell-based, Streptococcus pneumoniae; settings: 2×, 4×, 8× MIC; 2, 6, 24 hr
S. pyogenes ATCC 49399 = assay: Time-kill assay; type: cell-based, Streptococcus pyogenes; settings: 2×, 4×, 8× MIC; 2, 6, 24 hr
[3] = tested on: E. coli (ATCC 25922, ATCC 35218, MMX 1312); assay: Agar dilution MIC (spontaneous mutation study; strain in conditions); type: cell-based, Escherichia coli; settings: Escherichia coli
[4] = tested on: E. coli (ATCC 25922, ATCC 35218, MMX 1312); assay: Spontaneous mutation frequency assay; type: cell-based, Escherichia coli
Experimental: Initial values of the MIC were determined by agar dilution in accordance with guidelines from the Clinical and Laboratory Standards Institute (CLSI; (1) “Methods for Dilution Antimicrobial Susceptibility Tests for Bacteria That Grow Aerobically; Approved Standard; 11th ed.,” CLSI standard M07, 2018; (2) “Methods for Antimicrobial Susceptibility Testing of Anaerobic Bacteria; Approved Standard—Eighth Edition,” CLSI document M11-A8, 2012.).
The agar plates were prepared by mixing a ratio of 1.0 mL of concentrated drug to 49.0 mL of the appropriate molten (47° C.) agar; the drug-supplemented agar was mixed, poured into 15-by-150 mm petri dishes and allowed to solidify and dry at room temperature prior to inoculation. […] Each plate was allowed to cool at room temperature for at least 1 hr.
The isolates were streaked onto the appropriate agar medium and incubated for 20 hr (aerobes) or 48 hr (Bacteroides under anaerobic conditions). Using a sterile swab, several well-isolated colonies were removed and resuspended in sterile saline at a heavy cell density. Each plate was inoculated with 0.5 mL of the cell suspension (each test concentration was inoculated in duplicate). The target inoculum for each spontaneous mutation plate was 10^9-10 CFU. In addition, a portion of the inoculum from each isolate was enumerated by making dilutions, spreading on agar and counting colonies.
Once the inoculum was absorbed into the agar, the plates were incubated at 35° C. Aerobes were examined at 24 and 48 hr, and resulting colonies were counted. Bacteroides were incubated anaerobically for 48-72 hr in the anaerobe chamber and colonies were counted.
Colony counts from plates used to enumerate the initial inoculum density and from the resulting spontaneous mutation frequency test plates were determined. The inoculum size was calculated as CFU inoculated per plate. The spontaneous mutation frequency was calculated using the counts from duplicate spontaneous mutation assay test plates as follows:
If there were no colonies on the antibiotic selection plates, the spontaneous mutation frequency was reported as less than the frequency observed with one colony to indicate that the spontaneous mutation frequency was less than the limit of detection (one CFU). […] The mutation prevention concentration (MPC) was reported as the lowest concentration for which no mutants were selected.

[5] = tested on: Streptococcus spp. spontaneous mutants; settings: S. pneumoniae ATCC 49619; CLSI QC range shown in parentheses; cited from earlier work
Enterobacteriaceae = settings: cited from earlier work
[6] = in vivo, po; cited from earlier work
[7] = 30 Prevotella spp. clinical isolates
[8] = 30 Veillonella spp. clinical isolates

C[C@@H](O)[C@H]1C(=O)N2C(C(=O)O)=C(S[C@@H]3CN[C@H](C(=O)N(C)C)C3)[C@H](C)[C@H]12 [meropenem]
Cumulative percentage of isolates inhibited at MIC ([1]; MIC 0.06 μg/mL): 6.9% | Number of test isolates at MIC ([1]; MIC 0.06 μg/mL): 2 | Cumulative percentage of isolates inhibited at MIC ([1]; MIC 0.5 μg/mL): 75.9% | Number of test isolates at MIC ([1]; MIC 0.5 μg/mL): 10 | Cumulative percentage of isolates inhibited at MIC ([1]; MIC 1 μg/mL): 82.8% | Number of test isolates at MIC ([1]; MIC 1 μg/mL): 2 | Cumulative percentage of isolates inhibited at MIC ([1]; MIC 2 μg/mL): 93.1% | Number of test isolates at MIC ([1]; MIC 2 μg/mL): 3 | Cumulative percentage of isolates inhibited at MIC ([1]; MIC 4 μg/mL): 96.6% | Number of test isolates at MIC ([1]; MIC 4 μg/mL): 1 | Cumulative percentage of isolates inhibited at MIC ([1]; MIC >8 μg/mL): 100.0% | Number of test isolates at MIC ([1]; MIC >8 μg/mL): 1 | Cumulative percentage of isolates inhibited at MIC ([2]; MIC 0.015 μg/mL): 16.7% | Number of test isolates at MIC ([2]; MIC 0.015 μg/mL): 3 | Cumulative percentage of isolates inhibited at MIC ([2]; MIC 0.03 μg/mL): 36.7% | Number of test isolates at MIC ([2]; MIC 0.03 μg/mL): 6 | Cumulative percentage of isolates inhibited at MIC ([2]; MIC 0.06 μg/mL): 76.7% | Number of test isolates at MIC ([2]; MIC 0.06 μg/mL): 12 | Cumulative percentage of isolates inhibited at MIC ([2]; MIC ≤0.008 μg/mL): 6.7% | Number of test isolates at MIC ([2]; MIC ≤0.008 μg/mL): 2 | MIC range (Prevotella spp.): ≤0.008 to 0.3 µg/mL | isolates susceptible (Prevotella spp.): All were susceptible | relative activity among drugs tested (Prevotella spp.): most active drug tested; also recorded: most active agent | % S (Prevotella spp.; [7]): 100% | MIC50 (Prevotella spp.; [7]): 0.06 µg/mL (≈ 0.156 µM) | MIC90 (Prevotella spp.; [7]): 0.12 µg/mL (≈ 0.313 µM) | MIC range (Prevotella spp.; [7]): ≤0.008 to 0.3 µg/mL | MIC50 (Prevotella spp.; Prevotella, read-out: MIC50): 0.06 µg/mL (≈ 0.156 µM) | MIC90 (Prevotella spp.; Prevotella, read-out: MIC90): 0.12 µg/mL (≈ 0.313 µM) | Mode (Prevotella spp.; modal MIC, 30 Prevotella spp. clinical isolates): 0.06 µg/mL | isolates with intermediate resistance (Veillonella spp.): Twenty-three | relative activity among drugs tested (Veillonella spp.): most active drug evaluated; also recorded: most active agent | % I (Veillonella spp.; [8]): 23% | % S (Veillonella spp.; [8]): 77% | MIC50 (Veillonella spp.; [8]): 1 µg/mL (≈ 2.61 µM) | MIC90 (Veillonella spp.; [8]): 8 µg/mL (≈ 20.9 µM) | MIC range (Veillonella spp.; [8]): 0.12 to 8 µg/mL | MIC50 (Veillonella spp.; Veillonella, read-out: MIC50): 1 µg/mL (≈ 2.61 µM) | MIC90 (Veillonella spp.; Veillonella, read-out: MIC90): 8 µg/mL (≈ 20.9 µM) | Mode (Veillonella spp.; modal MIC, 30 Veillonella spp. clinical isolates): 0.12 µg/mL | time-kill kinetics outcome (bactericidal = ≥3 log reduction in CFU per mL) (E. coli ATCC 25922): rapid killing and bactericidal activity at the two higher concentrations at 24 hr | time-kill kinetics outcome (bactericidal = ≥3 log reduction in CFU per mL) (S. pneumoniae ATCC 49619): all three drug concentrations tested demonstrated bactericidal effects at 24 hr | time-kill kinetics outcome (bactericidal = ≥3 log reduction in CFU per mL) (S. pyogenes ATCC 49399): bactericidal effect at 4× and 8×MIC at 24 hr | MIC ([3]; read-out: Agar MIC, E. coli ATCC 25922): 0.015 µg/mL (≈ 0.0391 µM) | MIC ([3]; read-out: Agar MIC, E. coli ATCC 35218): 0.015 µg/mL (≈ 0.0391 µM) | MIC ([3]; read-out: Agar MIC, E. coli MMX 1312): 0.015 µg/mL (≈ 0.0391 µM) | MIC ([3]; read-out: MIC values (agar dilution), over evaluated E. coli isolates (range stated jointly with other groups)): 0.008 to 0.12 µg/mL (≈ 0.0209 to 0.313 µM) | colonies on selection plates ([4]; E. coli MMX 1312): too numerous to count | mutation rate ([4]; E. coli MMX 1312): indeterminate | colonies on selection plates ([4]; E. coli MMX 1312, listed as Meropenem): only E. coli MMX 1312 demonstrated growth | Spontaneous Mutation Frequency ([4]; selection at 4× and 8× MIC, meropenem/ceftriaxone: isolates other than MMX 1312): ≤ 7.41×10^−9 | MIC, CLSI QC range [5]: (0.03-0.25) μg/mL | % S (Enterobacteriaceae): 98.3% | MIC50 (Enterobacteriaceae): ≤0.12 µg/mL | Rat oral exposure (Dose) [6]: ~4%

From patent US20210386367A1, “DEVICES AND SYSTEMS FOR GASTROINTESTINAL MICROBIOME DETECTION AND MANIPULATION” (Progenity, Inc., priority 2018, published 2021)
